Assay results published in ChEMBL document CHEMBL3769391, “Identification of a new cyathane diterpene that induces mitochondrial and autophagy-dependent apoptosis and shows a potent in vivo anti-colorectal cancer activity” (Eur J Med Chem, 2016).
Activity calls are given as the source filed them. No cut-off for these calls is given here.

How the values were obtained:
[1] = test system: HCT-116; experiment: Induction of autophagy in human HCT116 cells assessed as increase in LC3-2 level at 5 uM by Western blot analysis; type: functional, cell-based
[2] = test system: HCT-116; experiment: Induction of apoptosis in human HCT116 cells assessed as viable cells at 5 uM after 24 hrs by Annexin V-FITC/propidium iodide staining based flow cytometry in presence of DTT (reference value: 93.64%); type: functional; details: HCT-116, 24 h, read-out: Activity
[3] = test system: SW480; experiment: Induction of apoptosis in human SW480 cells assessed as apoptotic cells at 10 uM after 24 hrs by Annexin V-FITC/propidium iodide staining based flow cytometry; type: functional, cell-based
[4] = test system: HCT-116; experiment: Induction of apoptosis in human HCT116 cells assessed as caspase activation at 5 uM after 24 hrs by CaspACEFITC-VAD-FMK staining based flow cytometry (reference value: 7.72%); type: functional
[5] = test system: HCT-116; experiment: Induction of apoptosis in human HCT116 cells assessed as necrotic cells at 5 uM after 24 hrs by Annexin V-FITC/propidium iodide staining based flow cytometry (reference value: 0.44%); type: functional
[6] = test system: HCT-116; experiment: Induction of apoptosis in human HCT116 cells assessed as changes in Bax expression at 5 uM after 6 to 24 hrs by Western blot analysis; type: functional, cell-based
[7] = test system: HCT-116; experiment: Induction of Bcl-2 expression in human HCT116 cells at 5 uM after 4 to 12 hrs by qRT-PCR method; type: functional, cell-based
[8] = test system: HCT-116; experiment: Induction of apoptosis in human HCT116 cells assessed as ATG5 cleavage by Western blot analysis in presence of Z-VAD-FMK; type: functional, cell-based
[9] = test system: HCT-116; experiment: Induction of apoptosis in ATG5 knockdown human HCT116 cells assessed as late apoptotic cells at 5 uM after 24 hrs by Annexin V-FITC/propidium iodide staining based flow cytometry (reference value: 2.01%); type: functional
[10] = test system: HCT-116; experiment: Induction of apoptosis in Bax deficient human HCT116 cells assessed as early apoptotic cells at 20 uM after 24 hrs by Annexin V-FITC/propidium iodide staining based flow cytometry (reference value: 1.13%); type: functional
[11] = test system: HCT-116; experiment: Induction of apoptosis in human HCT116 cells assessed as increase in total cellular ROS level after 6 hrs by H2DCFDA staining based flow cytometry; type: functional, cell-based
[12] = test system: HCT-116; experiment: Induction of apoptosis in human HCT116 cells assessed as ATG5 cleavage at 5 uM after 4 to 12 hrs by Western blot analysis; type: functional, cell-based
[13] = test system: HCT-116; experiment: Induction of apoptosis in human HCT116 cells assessed as increase in ATG5 expression at 5 uM after 4 to 12 hrs by Western blot analysis; type: functional, cell-based
[14] = test system: HCT-116; experiment: Induction of apoptosis in human HCT116 cells assessed as early apoptotic cells at 10 uM after 24 hrs by Annexin V-FITC/propidium iodide staining based flow cytometry (reference value: 1.06%); type: functional
[15] = test system: HCT-116; experiment: Induction of apoptosis in Bax deficient human HCT116 cells assessed as late apoptotic cells at 20 uM after 24 hrs by Annexin V-FITC/propidium iodide staining based flow cytometry (reference value: 1.5%); type: functional
[16] = test system: HCT-116; experiment: Induction of apoptosis in human HCT116 cells assessed as changes in p53 expression at 5 uM after 6 to 24 hrs by Western blot analysis; type: functional, cell-based
[17] = test system: HCT-116; experiment: Induction of apoptosis in human HCT116 cells assessed as early apoptotic cells at 2.5 uM after 24 hrs by Annexin V-FITC/propidium iodide staining based flow cytometry (reference value: 1.06%); type: functional
[18] = test system: HCT-116; experiment: Induction of apoptosis in human HCT116 cells assessed as late apoptotic cells at 5 uM after 24 hrs by Annexin V-FITC/propidium iodide staining based flow cytometry in presence of NAC (reference value: 3.73%); type: functional
[19] = test system: HCT-116; experiment: Induction of apoptosis in human HCT116 cells assessed as late apoptotic cells at 5 uM after 24 hrs by Annexin V-FITC/propidium iodide staining based flow cytometry (reference value: 3.73 to 4.54%); type: functional
[20] = test system: Mus musculus; experiment: Toxicity in immune deficient nude BALB/c mouse xenografted with Bax deficient human HCT116 cells assessed as discomfort behavioral changes at 5 and 10 mg/kg, ip administered every other day for 2 weeks measured during compound dosing; type: organism-based, HCT-116; details: in vivo, 336 h
[21] = test system: HCT-116; experiment: Induction of apoptosis in Bax deficient human HCT116 cells assessed as early apoptotic cells at 10 uM after 24 hrs by Annexin V-FITC/propidium iodide staining based flow cytometry (reference value: 1.13%); type: functional
[22] = test system: Mus musculus; experiment: Hepatotoxicity in immune deficient nude BALB/c mouse xenografted with human HCT116 cells assessed as changes in total protein level in serum at 5 and 10 mg/kg, ip administered every other day for 2 weeks measured during compound dosing; type: toxicity, organism-based, HCT-116; details: in vivo, 336 h
[23] = test system: HCT-116; experiment: Induction of apoptosis in Bax deficient human HCT116 cells assessed as early apoptotic cells at 15 uM after 24 hrs by Annexin V-FITC/propidium iodide staining based flow cytometry in presence of NAC (reference value: 0.85%); type: functional
[24] = test system: Mus musculus; experiment: Hepatotoxicity in immune deficient nude BALB/c mouse xenografted with human HCT116 cells assessed as changes in alanine transaminase level in serum at 5 and 10 mg/kg, ip administered every other day for 2 weeks measured during compound dosing; type: toxicity, organism-based, HCT-116; details: in vivo, 336 h
[25] = Antitumor activity against Bax deficient human HCT116 cells xenografted in immune deficient nude BALB/c mouse assessed as tumor growth inhibition at 5 mg/kg, ip administered every other day for 2 weeks measured after 2 weeks post last dose relative to control; type: functional; details: HCT-116, ip, 336 h, read-out: TGI
[26] = test system: HCT-116; experiment: Induction of apoptosis in human HCT116 cells assessed as increase in BimEL expression at 5 uM after 6 to 24 hrs by Western blot analysis; type: functional, cell-based
[27] = test system: HCT-116; experiment: Induction of apoptosis in human HCT116 cells assessed as late apoptotic cells at 7.5 uM after 24 hrs by Annexin V-FITC/propidium iodide staining based flow cytometry (reference value: 4.54%); type: functional
[28] = test system: HCT-116; experiment: Induction of apoptosis in human HCT116 cells assessed as depolarization of mitochondrial inner transmembrane potential after 24 hrs by TMRE staining based flow cytometry; type: functional, cell-based
[29] = Cytotoxicity against Bax deficient human HCT116 cells assessed as reduction in cell viability after 24 hrs by MTT assay; type: functional, cell-based; details: HCT-116, 24 h
[30] = test system: HCT-116; experiment: Induction of apoptosis in Bax deficient human HCT116 cells assessed as early apoptotic cells at 15 uM after 24 hrs by Annexin V-FITC/propidium iodide staining based flow cytometry (reference value: 0.85 to 1.13%); type: functional
[31] = test system: HCT-116; experiment: Induction of apoptosis in ATG5 knockdown human HCT116 cells assessed as early apoptotic cells at 5 uM after 24 hrs by Annexin V-FITC/propidium iodide staining based flow cytometry (reference value: 1.13%); type: functional
[32] = test system: HCT-116; experiment: Induction of apoptosis in Bax deficient human HCT116 cells assessed as early apoptotic cells at 5 uM after 24 hrs by Annexin V-FITC/propidium iodide staining based flow cytometry (reference value: 1.13%); type: functional
[33] = molecular target: c-Jun N-terminal kinase, JNK (Homo sapiens) (UniProt P45983+P53779+P45984); experiment: Induction of JNK phosphorylation in human HCT116 cells at 5 uM after 4 hrs by Western blot analysis; type: cell-based; details: HCT-116

## CO[C@@H]1C(C=O)=CC[C@@H]2C3=C(C(C)C)CC[C@]3(C)CC[C@@]2(C)[C@H]1O
[1]
  Activity: Active
[2]
  viability at 5 µM: 80.8%
[3]
  Activity: Active
[4]
  Activity: 70.08%
[5]
  Activity: 5.93%
[6]
  Activity: inactive
[7]
  Activity: Active
[8]
  Activity: inactive
[9]
  Activity: 1.85%
[10]
  Activity: 56.15%
[11]
  Activity: Dose-dependent effect
[12]
  Activity: Active
[13]
  Activity: Active
[14]
  Activity: 59.5%
[15]
  Activity: 32.25%
[16]
  Activity: inactive
[17]
  Activity: 2.23%
[18]
  Activity: 6.46%
[19]
  Activity: 13.06%
[20]
  Activity: Non-toxic
[21]
  Activity: 44.04%
[22]
  Activity: Non-toxic
[23]
  Activity: 1.42%
[24]
  Activity: Non-toxic
[25]
  inhibition in vivo at 5 mg/kg: 25.8%
[26]
  Activity: Active
[27]
  Activity: 20.8%
[28]
  Activity: Dose-dependent effect
[29]
  IC50: 24.2 µM
[30]
  Activity: 47.04%
[31]
  Activity: 2.36%
[32]
  Activity: 6.35%
[33]
  Activity: Active
